# Data taken from patent US9119882B2, “Volatile distillate by-product of mint oil that promotes absorption and/or bioavailability of compounds of bio-medical and nutritional interest” (Flavor Liquidating (G) Corporation (new name of A.M. Todd …, priority 2008, dated 2015).
# Test system: Caco-2 cells
# Test: Pilot study: uptake of CoQ10 into Caco-2 cells
# Assay type: in vitro ADME, human
# Details: 1 millimolar CoQ10, two hours, control set at 100%
# Protocol: An initial pilot study established that VDMO improved the uptake of CoQ10 into Caco-2 cells. Caco-2 cells were grown for 15 days in the bottom of 24-well plastic culture dishes and then were exposed to 1 millimolar concentrations of CoQ10 mixed with 5%, 1% or no VDMO. The VDMO utilized here was as analyzed in Table 3b. Cells were returned to the incubator for two hours, then cells and media were separated by centrifugation. The cellular fraction was washed and centrifuged a second time and the amount of CoQ10 inside the cells was determined by Liquid Chromatography Mass Spectrometry. The experiment was repeated twice; the absorption in the control group was set to 100% and treatments were compared accordingly; results are shown in Table 4.
smiles,measurement,value
"COC1=C(OC)C(=O)C(C/C=C(\C)CC/C=C(\C)CC/C=C(\C)CC/C=C(\C)CC/C=C(\C)CC/C=C(\C)CC/C=C(\C)CC/C=C(\C)CC/C=C(\C)CCC=C(C)C)=C(C)C1=O [CoQ10 + no VDMO; Control, Coenzyme Q10 (ubiquinone; CoQ10)]",Absorption (%) Experiment 1,100 ± 6.1%
same,Absorption (%) Experiment 2,100 ± 0.3%
